# Measurements published in patent publication US20100189797A1, “ORAL ANTIDEPRESSANT FORMULATION” (priority 2002, published 2010).
# What was measured:
# [1] = system: stressed rats; experiment: Tests made on rats: activity level of stressed rats; format: in vivo; conditions: 5 mg fluoxetine per kg and/or 50 mg ASA per kg, unstressed control 30, stressed 2
# Protocol: Four groups of rats have been stressed. One group of rats remain unstressed so as to serve as control.
# After being stressed, the rats of the first group received a dose of 50 mg ASA per kg. The second group of rats received no treatment. The third group of rats received 5 mg fluoxetine per kg, and the fourth group of rats received simultaneously 5 mg fluoxetine+50 mg ASA per kg.
# The treatment was continued during 3 weeks.
# In said test, the doses of ASA and fluoxetine have been adapted for rats.
# [2] = system: volunteers; experiment: Informal tests on volunteers: oral ASA dose with oral antidepressant; format: in vivo, human; conditions: oral ASA less than 50 mg with an antidepressant
# Protocol: From said tests and informal tests made on volunteers, in which after (just after, less than 5 minutes after) and prior oral administration of an antidepressant, a dose of ASA was orally administered, it appears that the oral dose of ASA had to be lowered to less than 50 mg, especially between 5 and 50 mg.
# From this test, it seems that the antidepressant action could already be achieved in less than 7 days, and even in less than 3 to 4 days, although when not using low dose of ASA, the antidepressant action is for example of at least 4 weeks for SSRI.
# [3] = system: SSRI responding human; experiment: Higher dose of ASA administered to SSRI responding human; format: in vivo; conditions: ASA dose of 100 mg
SMILES,activity after 1 week of treatment [1],activity after three weeks of treatment [1],bleeding [2],influence on the time of onset of antidepressant action [3]
"CNCCC(Oc1ccc(C(F)(F)F)cc1)c1ccccc1 (racemic) [fluoxetine, (±)-N-methyl-3-phenyl-3-[(α-α-α-trifluoro-p-tolyl)oxy] propylamine]",no increase at all of the activity,about 25,,
"CC(=O)Oc1ccccc1C(=O)O [ASA, acetyl salicylic acid]",no increase at all of the activity,no improvement of activity,no bleeding was observed,no influence or even to have a negative influence
